Test [1] concerns acetylated α-tubulin (AcTub) levels in QBI293 cells. On the set-up: method as in PMID 26980057, PMID 33411523. The conditions noted are these: cited from earlier work; for Class (cellular phenotype): activity reported in previous studies.
Test [2] concerns total α-tubulin (α-Tub) levels in QBI293 cells. On the set-up: method as in PMID 26980057, PMID 33411523. The conditions noted are these: 4 h incubation, reported in previous studies, cited from earlier work.
Test [3] has as its system acetylated α-tubulin (AcTub) levels in QBI293 cells. The test can be described thus: QBI293 cell assay of MT stabilization: acetylated α-tubulin ELISA. Type of test: cell-based. The method in brief:
(§1)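 AcTub and α-Tub were quantified by ELISA in whole-cell extracts normalized by BCA protein and expressed relative to vehicle. AcTub changes were also scaled to a 100 nM reference stabilizer control.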
In general terms: ELISA stands for enzyme-linked immunosorbent assay.

The test system of test [4] is total α-tubulin (α-Tub) levels in QBI293 cells. Nature of the test: QBI293 cell assay: total α-tubulin ELISA. Type of test: cell-based. In outline: as §1
Setting [5] is: 4 h incubation, reported in previous studies.
The mark [6] stands for this setting: 4 h incubation, 10 μM, reported in previous studies.
Setting [7] is: 4 h, 1 uM compound, read-out: AcTub (1uM).
Setting [8] is: 4 h, 10 uM compound, read-out: AcTub (10 uM).
Where [9] appears, read: 4 h, 1 uM compound, read-out: AlfaTub (1uM).
Setting [10] is: 4 h, 10 uM compound, read-out: AlfaTub (10 uM).
Where [11] appears, read: 4 h incubation, 1 μM, read-out: AcTub 1 μM, fold-change compared to vehicle (DMSO)-treated cells.
[12] abbreviates: 4 h incubation, 10 μM, read-out: AcTub 10 μM, fold-change compared to vehicle (DMSO)-treated cells.
[13] abbreviates: 4 h incubation, 1 μM, read-out: α-Tub 1 μM, fold-change compared to vehicle (DMSO)-treated cells.
Where [14] appears, read: 4 h incubation, 10 μM, read-out: α-Tub 10 μM, fold-change compared to vehicle (DMSO)-treated cells.

Where a name gives a salt, the structure may show the parent alone. Read-outs that look alike come from different tables or passages of the source.

On to `CC(C)[C@@H](C)Nc1c(-c2c(F)cc(F)cc2F)c(Cl)nc2ncnn12` [Compound 1], for which the “Class (cellular phenotype)” value in test [1] was “I”.
For `CC(C)[C@H](C)Nc1c(-c2c(F)cc(F)cc2F)c(Cl)nc2ncnn12` [Compound 7], the “Class (cellular phenotype)” value in test [1] is reported as “I”.
Turning to `CC(C)[C@@H](Nc1c(-c2c(F)cc(F)cc2F)c(Cl)nc2ncnn12)C(F)(F)F` [Compound 8], the “α-Tub 1 μM, fold-change compared to vehicle (DMSO)-treated cells” value (shortened to “α-Tub 1 μM, fold-change”) in test [2] is 1.10 ± 0.09 fold-change. For the same compound, in test [1] (setting [5]), the “AcTub 1 μM, fold-change compared to vehicle (DMSO)-treated cells” value was 2.79 ± 0.04 fold-change. Also, the “AcTub 10 μM, fold-change compared to vehicle (DMSO)-treated cells” value in test [1] (setting [6]) is listed as 13.0 ± 0.54 fold-change. For the same compound, the “AcTub (1 uM - normalized)” value in test [3] (1 uM compound) turned out to be 0.16. The “AcTub (10 uM - normalized)” value in test [3] (10 uM compound) is reported as 0.73. In addition, the values for the fold induction at 1 µM in test [3] (setting [7]) and in test [4] (setting [9]) were 2.79 and 1.1, respectively. Further, the fold induction at 10 µM is 13 in test [3] (setting [8]) and 0.61 in test [4] (setting [10]).
As for `CC(C)[C@H](Nc1c(-c2c(F)cc(F)cc2F)c(Cl)nc2ncnn12)C(F)(F)F` [Compound 9], in test [2], the “α-Tub 1 μM, fold-change” value is listed as 1.04 ± 0.01 fold-change. The “Class (cellular phenotype)” value in test [1] is “I”. The “AcTub (1 uM - normalized)” value in test [3] (1 uM compound) was determined as 0.17. For the same compound, in test [3] (10 uM compound), the “AcTub (10 uM - normalized)” value was 0.38. In addition, the results for the fold induction at 1 µM in test [3] (setting [7]) and in test [4] (setting [9]) were 3.12 and 1.04, respectively. Also, the fold induction at 10 µM in test [3] (setting [8]) amounted to 6.78; in test [4] (setting [10]), 1.06.
Regarding `C[C@@H](Nc1c(-c2c(F)cc(F)cc2F)c(Cl)nc2ncnn12)C(C)(C)C` [Compound 10], the “Class (cellular phenotype)” value in test [1] was “I”.
On to `CC(C)(C)CNc1c(-c2c(F)cc(F)cc2F)c(Cl)nc2ncnn12` [Compound 11], for which the “α-Tub 1 μM, fold-change” value in test [2] is 1.03 ± 0.07 fold-change. Besides, in test [1] (setting [5]), the “AcTub 1 μM, fold-change compared to positive control compound 5 (100 nM) (in parentheses)” value (“AcTub 1 μM, fold-change … (in parentheses)” for short) is 0.30 fold-change and the “AcTub 1 μM, fold-change compared to vehicle (DMSO)-treated cells” value is reported as 2.04 ± 0.11 fold-change. The “AcTub 10 μM, fold-change compared to vehicle (DMSO)-treated cells” value in test [1] (setting [6]) is recorded as 4.79 ± 0.74 fold-change. Further, the “Class (cellular phenotype)” value in test [1] is “I”. In test [3] (1 uM compound), the “AcTub (1uM)” value came to 2.04 and the “AcTub (1 uM - normalized)” value is 0.30. Besides, in test [3] (10 uM compound), the “AcTub (10 uM)” value is reported as 4.79 and the “AcTub (10 uM - normalized)” value is given as 0.71. Moreover, the “AlfaTub (1uM)” value in test [4] (1 uM compound) came to 1.03. The “AlfaTub (10 uM)” value in test [4] (10 uM compound) is 1.06.
With `C[C@H](Nc1c(-c2c(F)cc(F)cc2F)c(Cl)nc2ncnn12)C(C)(C)C` [Compound 12], the “Class (cellular phenotype)” value in test [1] was “I”.
In the case of `C[C@@H](Nc1c(-c2c(F)cc(C#CCCN)cc2F)c(Cl)nc2ncnn12)C(C)(C)C` [Compound 57, (R)-6-(4-(4-Aminobut-1-yn-1-yl)-2,6-difluorophenyl)-5-chloro-N-(3,3-dimethylbutan-2-yl)-[1,2,4]triazolo[1,5-a]pyrimidin-7-amine Hydrochloride], the “AcTub (1 uM - normalized)” value in test [3] (1 uM compound) is given as 0.83. Also, the “AcTub (10 uM - normalized)” value in test [3] (10 uM compound) is recorded as 1.21. Further, the fold induction at 1 µM was 2.49 in test [3] (setting [7]), 2.49 ± 0.17 in test [3] (setting [11]), 0.96 in test [4] (setting [9]) and 0.96 ± 0.026 in test [4] (setting [13]). Besides, the fold induction at 10 µM came to 3.66 in test [3] (setting [8]), 3.66 ± 0.58 in test [3] (setting [12]), 0.91 in test [4] (setting [10]) and 0.91 ± 0.12 in test [4] (setting [14]). For the same compound, in test [3] (4 h incubation, 1 μM), the “AcTub 1 μM, fold-change … (in parentheses)” value amounted to 0.83 fold-change. Moreover, the “AcTub 10 μM, fold-change compared to positive control compound 5 (100 nM) (in parentheses)” value (“AcTub 10 μM, fold-change … (in parentheses)” for short) in test [3] (4 h incubation, 10 μM) came out at 1.21 fold-change.
On to `CNCC#Cc1cc(F)c(-c2c(Cl)nc3ncnn3c2N[C@H](C)C(C)(C)C)c(F)c1` [Compound 59, (R)-5-Chloro-6-(2,6-difluoro-4-(3-(methylamino)prop-1-yn-1-yl)phenyl)-N-(3,3-dimethylbutan-2-yl)-[1,2,4]triazolo[1,5-a]pyrimidin-7-amine Hydrochloride], for which, in test [3] (1 uM compound), the “AcTub (1 uM - normalized)” value is on record as 0.81. Also, the “AcTub (10 uM - normalized)” value in test [3] (10 uM compound) turned out to be 1.16. For the same compound, the fold induction at 1 µM in test [3] (setting [7]) turned out to be 6.03; in test [3] (setting [11]) it was 6.03 ± 0.64; in test [4] (setting [9]), 0.93; in test [4] (setting [13]) it was 0.93 ± 0.02. Moreover, the fold induction at 10 µM in test [3] (setting [8]) was determined as 8.67; in test [3] (setting [12]), 8.67 ± 0.16; in test [4] (setting [10]) it was 1; in test [4] (setting [14]) it was 1 ± 0.03. The “AcTub 1 μM, fold-change … (in parentheses)” value in test [3] (4 h incubation, 1 μM) is 0.81 fold-change. Moreover, in test [3] (4 h incubation, 10 μM), the “AcTub 10 μM, fold-change … (in parentheses)” value was found to be 1.16 fold-change.
`CC1(CNc2c(-c3c(F)cc(F)cc3F)c(Cl)nc3ncnn23)N=N1` [Compound 61]: the “α-Tub 1 μM, fold-change” value in test [2] was 1.08 ± 0.04 fold-change. Besides, the “α-Tub 10 μM, fold-change compared to vehicle (DMSO)-treated cells” value (from here on “α-Tub 10 μM, fold-change”) in test [2] is recorded as 1.03 ± 0.04 fold-change. Besides, in test [1] (setting [5]), the “AcTub 1 μM, fold-change … (in parentheses)” value is given as 0.12 fold-change. The “Class (cellular phenotype)” value in test [1] is reported as “I”. Further, the “AcTub (1 uM - normalized)” value in test [3] (1 uM compound) turned out to be 0.12. In test [3] (10 uM compound), the “AcTub (10 uM - normalized)” value worked out at 0.27. The fold induction at 1 µM in test [3] (setting [7]) was 1.56; in test [4] (setting [9]), 1.08. The fold induction at 10 µM in test [3] (setting [8]) came out at 3.42; in test [4] (setting [10]) it was 1.03.
Turning to `C[C@H](Nc1c(-c2c(F)cc(F)cc2F)c(Cl)nc2ncnn12)C1(C)N=N1` [Compound 62], in test [2], the “α-Tub 10 μM, fold-change” value is 0.94 ± 0.02 fold-change. Besides, the “AcTub 10 μM, fold-change compared to vehicle (DMSO)-treated cells” value in test [1] (setting [6]) is 1.85 ± 0.08 fold-change. In addition, the “Class (cellular phenotype)” value in test [1] is “I”. Moreover, the “AcTub (1 uM - normalized)” value in test [3] (1 uM compound) turned out to be 0.13. Besides, the “AcTub (10 uM - normalized)” value in test [3] (10 uM compound) amounted to 0.28. Further, the fold induction at 1 µM was 0.84 in test [3] (setting [7]) and 1.07 in test [4] (setting [9]). Besides, the fold induction at 10 µM stood at 1.85 in test [3] (setting [8]) and 0.94 in test [4] (setting [10]).
As to `C[C@@H](Nc1c(-c2c(F)cc(F)cc2F)c(Cl)nc2ncnn12)C1(C)N=N1` [Compound 63], the “AcTub 1 μM, fold-change compared to vehicle (DMSO)-treated cells” value in test [1] (setting [5]) is 1.42 ± 0.08 fold-change. Besides, the “Class (cellular phenotype)” value in test [1] is on record as “I”. The “AcTub (1 uM - normalized)” value in test [3] (1 uM compound) is given as 0.11. Moreover, the “AcTub (10 uM - normalized)” value in test [3] (10 uM compound) amounted to 0.36. Moreover, the fold induction at 1 µM in test [3] (setting [7]) worked out at 1.42; in test [4] (setting [9]), 0.92. In addition, the fold induction at 10 µM in test [3] (setting [8]) is 4.28; in test [4] (setting [10]), 0.89.
Consider `CN(C)CCCOc1cc(F)c(-c2c(Cl)nc3ncnn3c2NCC2(C)N=N2)c(F)c1` [Compound 65], for which the “α-Tub 10 μM, fold-change” value in test [2] is 0.19 ± 0.02 fold-change. The “AcTub 1 μM, fold-change … (in parentheses)” value in test [1] (setting [5]) is listed as 0.81 fold-change. In test [1] (setting [5]), the “AcTub 1 μM, fold-change compared to vehicle (DMSO)-treated cells” value was 10.5 ± 0.4 fold-change. For the same compound, the “AcTub 10 μM, fold-change … (in parentheses)” value in test [1] (setting [6]) is reported as 0.02 fold-change. Further, the “AcTub (1 uM - normalized)” value in test [3] (1 uM compound) is 0.81. Further, the “AcTub (10 uM - normalized)” value in test [3] (10 uM compound) amounted to 0.02. Also, the fold induction at 1 µM in test [3] (setting [7]) turned out to be 10.5; in test [4] (setting [9]) it was 0.36. Besides, the fold induction at 10 µM was found to be 0.29 in test [3] (setting [8]) and 0.19 in test [4] (setting [10]).
For `C[C@@H](Nc1c(-c2c(F)cc(OCCCN(C)C)cc2F)c(Cl)nc2ncnn12)C1(C)N=N1` [Compound 66], the “α-Tub 10 μM, fold-change” value in test [2] is 1.01 ± 0.05 fold-change. The “AcTub (1 uM - normalized)” value in test [3] (1 uM compound) is 1.68. In addition, the “AcTub (10 uM - normalized)” value in test [3] (10 uM compound) was found to be 0.07. Besides, the fold induction at 1 µM in test [3] (setting [7]) worked out at 21.7; in test [4] (setting [9]) it was 0.73. Also, the fold induction at 10 µM in test [3] (setting [8]) is 0.93; in test [4] (setting [10]) it was 1.01.

(Values after publication PMC9841533, “Microtubule-Stabilizing 1,2,4-Triazolo[1,5-a]pyrimidines as Candidate Therapeutics for Neurodegenerative Disease: Matched Molecular Pair Analyses and Computational Studies Reveal New Structure–Activity Insights” (Journal of Medicinal Chemistry, 2022).)
